Measured values: patent US7323480B2, “Substituted triazoles as modulators of PPAR and methods of their preparation” (Metabolex, Inc., priority 2004, dated 2008)
Read-outs that look alike come from different tables or passages of the source.

Legend:
Format in all cases: cell-based
[1] = molecular target: T1, mouse PPAR α (Mus musculus, UniProt P23204); experiment: PPAR α transactivation (GAL4 chimera luciferase gene activation) assay; conditions: GAL4 DNA binding domain-PPAR α ligand binding domain chimera, pFR-Luc reporter, HEK293T cells, 20 hours incubation; read-out: Gene Activation Assay: EC50 PPAR alpha
T1 construct: expressed in transfected cells; host or cells: HEK293T
T1 sequence (P23204 239-466 limits assumed): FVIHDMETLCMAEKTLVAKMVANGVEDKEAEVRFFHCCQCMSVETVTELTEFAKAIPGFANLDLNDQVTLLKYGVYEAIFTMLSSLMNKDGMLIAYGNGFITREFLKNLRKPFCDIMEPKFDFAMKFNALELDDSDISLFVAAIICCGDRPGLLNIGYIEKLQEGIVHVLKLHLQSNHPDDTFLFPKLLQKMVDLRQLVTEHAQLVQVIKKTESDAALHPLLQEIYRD
Description: (§1) Measurement of PPARγ, δ, and α Transactivation Activity
(§2) Chimeric receptors were constructed in which the yeast transcription factor GAL4 DNA binding domain was fused to the ligand binding domain of either mouse PPARγ, mouse PPAR δ or mouse PPAR α in order to assess the ability of the compounds of the present invention to activate gene expression in a PPAR-dependent manner. The chimeric receptor expression plasmids (GAL4-nPPARγ, GAL4-mPPAR δ and GAL4-PPAR α) and the reporter plasmid containing 5×GAL4 binding site (pFR-Luc, obtained from Stratagene) were transfected into HEK293T cells using the Lipofectamine 2000 reagent (Invitrogen), according to the manufacturers instructions. Six hours after transfection, the culture medium was renewed and the cells were incubated for 20 hours in presence of either 1) DMSO (vehicle), 2) a compound of the invention or 3) a reference compound for comparison. Rosiglitazone (obtained from WDF Pharma) was used as a reference compound for the PPARγ assay; GW501516 (prepared as described in Sznaidman et al. Bioorg. Med. Chem. Lett. (2003) 13:1517-1521) was used as a reference compound for the PPAR δ assay and GW7647 (obtained from Sigma) was used as a reference compound for the PPAR α assay. Luciferase activity was measured as a reporter of gene expression. Luciferase activity on the cell lysates using the Steady-Glo reagent was measured according to the manufacturers instructions.

[2] = molecular target: T2, mouse PPAR δ (Mus musculus, UniProt P35396); experiment: PPAR δ transactivation (GAL4 chimera luciferase gene activation) assay; conditions: GAL4 DNA binding domain-PPAR δ ligand binding domain chimera, pFR-Luc reporter, HEK293T cells, 20 hours incubation; read-out: Gene Activation Assay: EC50 PPAR delta
T2 construct: expressed in transfected cells; host or cells: HEK293T
T2 sequence (P35396 210-438 limits assumed): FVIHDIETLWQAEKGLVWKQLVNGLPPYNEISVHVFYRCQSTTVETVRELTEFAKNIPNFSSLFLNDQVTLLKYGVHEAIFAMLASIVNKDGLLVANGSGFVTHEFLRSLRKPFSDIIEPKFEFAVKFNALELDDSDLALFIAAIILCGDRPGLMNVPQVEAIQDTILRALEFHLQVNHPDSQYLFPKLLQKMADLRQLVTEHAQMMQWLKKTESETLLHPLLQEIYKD
Description: as §1, §2

[3] = molecular target: T3, mouse PPARγ (Mus musculus, UniProt P37238); experiment: PPARγ transactivation (GAL4 chimera luciferase gene activation) assay; conditions: GAL4 DNA binding domain-PPARγ ligand binding domain chimera, pFR-Luc reporter, HEK293T cells, 20 hours incubation
T3 construct: expressed in transfected cells; host or cells: HEK293T
T3 sequence (P37238 238-503 limits assumed): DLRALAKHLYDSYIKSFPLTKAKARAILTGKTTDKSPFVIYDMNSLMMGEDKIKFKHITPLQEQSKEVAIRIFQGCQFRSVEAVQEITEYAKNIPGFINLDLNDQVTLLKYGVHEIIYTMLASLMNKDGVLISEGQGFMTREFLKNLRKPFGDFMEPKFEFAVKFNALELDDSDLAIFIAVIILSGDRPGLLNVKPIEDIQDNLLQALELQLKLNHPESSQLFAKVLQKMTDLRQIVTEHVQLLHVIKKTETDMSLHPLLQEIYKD
Description: as §1, §2

[4] = read-out: Gene Activation Assay: EC50 PPAR gamma

Row | Structure (SMILES) | EC50 [1] | EC50 [2] | EC50 [3, 4] | EC50 ([3]; read-out: Gene Activation Assay: EC50 PPAR gamma (number printed instead of a symbol))
1 | CCCc1cc(CC(=O)O)ccc1OCc1nn(-c2ccc(C(F)(F)F)cc2)nc1C [Compound 660, {3-Propyl-4-[5-methyl-2-(4-trifluoromethyl-phenyl)-2H-[1,2,3]triazol-4-ylmethoxy]-phenyl}-acetic acid] | > 30 µM | ≤ 10 µM | > 30 µM | 
2 | Cc1nn(-c2ccc(C(F)(F)F)cc2)nc1COc1ccc(CC(=O)O)cc1 [Compound 670] | > 10 µM | ≤ 10 µM | > 30 µM | 
3 | Cc1cc(SCc2nn(-c3ccc(C(F)(F)F)cc3)nc2C(C)C)ccc1OCC(=O)O [Compound 320, {4-[5-Isopropyl-2-(4-trifluoromethyl-phenyl)-2H-[1,2,3]triazol-4-ylmethylsulfanyl]-2-methyl-phenoxy}-acetic acid] | > 10 µM | ≤ 10 µM | > 30 µM | 
4 | COc1ccc(-n2nc(C)c(CSc3ccc(OCC(=O)O)c(C)c3)n2)cc1 [Compound 440, {4-[2-(4-Methoxy-phenyl)-5-methyl-2H-[1,2,3]triazol-4-ylmethylsulfanyl]-2-methyl-phenoxy}-acetic acid] | > 10 µM | ≤ 10 µM | > 10 µM | 
5 | Cc1cc(SCc2nn(-c3ccc(C(F)(F)F)cc3)nc2C(F)(F)F)ccc1OCC(=O)O [Compound 360, {2-Methyl-4-[5-trifluoromethyl-2-(4-trifluoromethyl-phenyl)-2H-[1,2,3]triazol-4-ylmethylsulfanyl]-phenoxy}-acetic acid] | > 10 µM | ≤ 10 µM | > 30 µM | 
6 | Cc1cc(SCc2nn(-c3ccc(Cl)c(Cl)c3)nc2C)ccc1OCC(=O)O [Compound 640, {4-[2-(3,4-Dichloro-phenyl)-5-methyl-2H-[1,2,3]triazol-4-ylmethylsulfanyl]-2-methyl-phenoxy}-acetic acid] | > 10 µM | ≤ 10 µM | > 30 µM | 

Other lines, results leading:

Row | EC50 [1] | EC50 [2] | EC50 [3, 4] | EC50 ([3]; read-out: Gene Activation Assay: EC50 PPAR gamma (number printed instead of a symbol)) | Structure (SMILES)
7 | > 10 µM | ≤ 10 µM | > 30 µM |  | Cc1cc(SCc2nn(-c3ccc(C(F)(F)F)cc3)nc2C)ccc1OCC(=O)O [Compound 100, {2-Methyl-4-[5-methyl-2-(4-trifluoromethyl-phenyl)-2H-[1,2,3]triazol-4-ylmethylsulfanyl]-phenoxy}-acetic acid]
8 | ≤ 10 µM | ≤ 10 µM |  | 10 µM | Cc1cc(SCc2nn(-c3ccc(C(F)(F)F)cc3)nc2C)ccc1OC(C)(C)C(=O)O [Compound 210, 2-Methyl-2-{2-methyl-4-[5-methyl-2-(4-trifluoromethyl-phenyl)-2H-[1,2,3]triazol-4-ylmethylsulfanyl]-phenoxy}-propionic acid]
9 | ≤ 10 µM | ≤ 10 µM | > 30 µM |  | Cc1cc(SCCc2nn(-c3ccc(C(F)(F)F)cc3)nc2C)ccc1OCC(=O)O [Compound 580, (2-Methyl-4-{2-[5-methyl-2-(4-trifluoromethyl-phenyl)-2H-[1,2,3]triazol-4-yl]-ethylsulfanyl}-phenoxy)-acetic acid]
10 | ≤ 10 µM | ≤ 10 µM | ≤ 10 µM |  | Cc1cc(SCc2nn(-c3ccc(C(F)(F)F)cc3)nc2C)ccc1OC(C)C(=O)O (stereo not drawn) [Compound 110, 2-{2-Methyl-4-[5-methyl-2-(4-trifluoromethyl-phenyl)-2H-[1,2,3]triazol-4-ylmethylsulfanyl]-phenoxy}-propionic acid]
11 | ≤ 10 µM | ≤ 10 µM | > 30 µM |  | Cc1cc(SCc2nn(-c3ccc(C(F)(F)F)cc3)nc2-c2ccccc2)ccc1OCC(=O)O [Compound 340, {2-Methyl-4-[5-phenyl-2-(4-trifluoromethyl-phenyl)-2H-[1,2,3]triazol-4-ylmethylsulfanyl]-phenoxy}-acetic acid]
12 | ≤ 10 µM | ≤ 10 µM | > 10 µM |  | Cc1cc(SCc2nn(-c3cccc(C(F)(F)F)c3)nc2C)ccc1OCC(=O)O [Compound 480, {2-Methyl-4-[5-methyl-2-(3-trifluoromethyl-phenyl)-2H-[1,2,3]triazol-4-ylmethylsulfanyl]-phenoxy}-acetic acid]
